For orientation: IC50 means the point on the concentration scale where inhibition reaches its midpoint. As a reminder, the EC50 is the concentration that produces a half-maximal response.

“Also recorded” adds a separate entry of the source. Read-outs that look alike come from different tables or passages of the source.

We go through 9 molecules from article PMC7948474, “Structural basis of carnitine monooxygenase CntA substrate specificity, inhibition, and intersubunit electron transfer” (The Journal of Biological Chemistry, 2020).

The target of data set [1] is T1, CntA (Acinetobacter baumannii, UniProt D0C9N6).
T1 construct: made in house; host or cells: Escherichia coli BL21(DE3)pLysS
T1 sequence (D0C9N6 1-371): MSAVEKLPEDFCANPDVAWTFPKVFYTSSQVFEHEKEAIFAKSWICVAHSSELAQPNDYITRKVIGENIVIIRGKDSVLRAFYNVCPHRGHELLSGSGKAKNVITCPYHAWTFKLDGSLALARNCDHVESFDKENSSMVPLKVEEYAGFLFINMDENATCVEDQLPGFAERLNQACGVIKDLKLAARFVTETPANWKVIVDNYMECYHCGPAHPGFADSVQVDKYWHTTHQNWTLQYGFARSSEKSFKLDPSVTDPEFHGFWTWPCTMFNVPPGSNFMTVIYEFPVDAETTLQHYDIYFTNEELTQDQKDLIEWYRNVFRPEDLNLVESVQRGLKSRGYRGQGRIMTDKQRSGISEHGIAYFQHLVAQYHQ
Kind of data set: Substrate profiling of carnitine analogs with CntA (structure–activity relationship). The data set is classed as biochemical. The note with it: substrate analogs tested as CntA substrates. The procedure: (§1) All activity assays were performed on a BMG FLOUstar Omega 96-well plate reader, set at wavelength 340 nm with a sample volume of 200 μl. The assay comprised combining mixture A 60 μg CntA and 60 μg CntB with mixture B 0.25 mM L-carnitine and 0.25 mM NADH in a 10 mM Hepes buffer, pH 7.6 with 250 mM NaCl and 0.5 mM TCEP. […] The reactions were measured for 5 min recording the linear decrease of signal at 340 nm for NADH oxidation. The slope of the line was measured between 60 and 120 s to yield the rate.

The target in data set [2] is T1, CntA. Kind of data set: Inhibitory IC50 determination against CntA (UV-visible enzyme assay). In kind it is biochemical. As to the method:
as §1
Compounds in the Pathogen Box (https://www.mmv.org/mmv-open/pathogen-box/about-pathogen-box) were received as 10 mM stocks dissolved in dimethylsulfoxide (DMSO). The compounds were added such that the final concentration was 50 μM in the 200-μl reaction. As per the “UV-visible enzyme assays” methodology above, the protein in mixture A was incubated with inhibitor compounds for 20 min before commencing the assay.
[…]. For each concentration, four replicates were carried out. IC50 values were determined using a built-in “Dose Response Inhibition” – [Inhibitor] versus response model in Prism 8 for macOS v8.2.0.

The test system of the next data set is CutC. Also on record: method as in PMID 30082863. The note with it: irreversible covalent bond in the CutC catalytic site; cited from earlier work.
Data set [3] relates to TMA production in A. baumannii cells. Kind of data set: Evaluation of inhibitors in A. baumannii cell culture (TMA production from carnitine). The data set is classed as cell-based, Acinetobacter baumannii. The note with it: inhibitor 200 μM; carnitine 1 mM; 37 °C, 1 h; N = 3. As to the method:
A. baumannii cells were cultured overnight in the M9 minimal media at 37 °C with 10 mM L-carnitine as the sole carbon source. The cells were then collected by centrifugation and washed twice in a buffer containing 10 mM Hepes, 1 mM NaCl (pH 7.6). After wash, the cells were resuspended in the same buffer to a density of OD600 of 0.4. […]. These cells with appropriate treatments were incubated at 37 °C for 1 h. The supernatant was then obtained by filtering through a 0.2-μm filter and analyzed by ion chromatography by quantifying TMA production and carnitine degradation as described previously ([13]).

Substrate in data set [4]: CCCC[N+](C)(C)C
Kind of data set: Michaelis–Menten kinetics of CntA (UV-visible NADH oxidation assay). The note with it: other: substrate of CntA; n = 4; pH 7.6. In kind it is biochemical, Acinetobacter baumannii. The procedure:
as §1
(§2) Michaelis–Menten kinetic parameters were derived using the UV-visible enzyme assays methodology above. Substrate concentrations were varied from a top concentration of 2 mM and decreasing in a twofold manner for 10 successive dilutions. Observed rates were obtained from four independent measurements and fitted to a nonlinear regression Michaelis–Menten model in Prism 8 for macOS v8.2.0.

Substrate in data set [5]: C[N+](C)(C)CCCC(=O)[O-]
The description is as above. In kind it is biochemical, Acinetobacter baumannii. The following applies: other: substrate of CntA; n = 4; pH 7.6. The procedure: as §1, §2

Substrate in data set [6]: C[N+](C)(C)CC(O)CC(=O)[O-]
Described as above. In kind it is biochemical, Acinetobacter baumannii. The note with it: other: substrate of CntA; n = 4; pH 7.6. As to the method: as §1, §2

Substrate in data set [7]: C[N+](C)(C)NCCC(=O)[O-]
Described as above. The data set is classed as biochemical, Acinetobacter baumannii. The note with it: other: substrate of CntA; n = 4; pH 7.6. The procedure:
as §1, §2

For `C[N+](C)(C)CC(O)CC(=O)[O-]` (centres unmarked) [compound 1, Carnitine], at CntA [1], the “Oxidation by CntA (activity as substrate)” value is “oxidizing”.
Same read-out and setting: in the case of `C[N+](C)(C)NCCC(=O)[O-]` [compound 3, Meldonium] it was “can also oxidize”; in that of `CCCC[N+](C)(C)C` [compound 4, (1-Butyl)Trimethylammonium], “can also oxidize”.
Take `N#CS` [SCN, thiocyanate]: the IC50 on CntA [2] (dose response, N=3, read-out: IC50 (inhibition of CntA activity)) was 35000 µM.
For `C[N+](C)(C)CCCC(=O)[O-]` [compound 2, γ-butyrobetaine], the “Oxidation by CntA (activity as substrate)” value on CntA [1] is “oxidizing”.
For the molecule `C[N+](C)(CF)CCO` [FMC, N-(fluoromethyl)-2-hydroxy-N,N-dimethylethan-1-aminium], in the data set with CutC, the EC50 was 0.056 µM.
On to `c1csc(-c2cnc3sc(NCC4CCOCC4)nn23)c1` [MMV1, N-[(oxan-4-yl)methyl]-5-(thiophen-2-yl)imidazo[2,1-b][1,3,4]thiadiazol-2-amine], for which the “Effect on TMA formation from carnitine in A. baumannii culture” value in data set [3] was “did not reduce TMA production; also recorded: did not inhibit TMA formation”. This molecule showed an IC50 against CntA [2] of 5.8 µM.
Take `Brc1cncc(-c2cc(NCCCn3ccnc3)nc(-c3ccccc3)n2)c1` [MMV3, 6-(5-bromopyridin-3-yl)-N-[3-(1H-imidazol-1-yl)propyl]-2-phenylpyrimidin-4-amine]: the “Effect on TMA formation from carnitine in A. baumannii culture” value in data set [3] is given as “significant reduction; also recorded: almost completely inhibited TMA formation”. This molecule also showed an IC50 at CntA [2] of 1.1 µM.

B1: CntA (Acinetobacter baumannii ATCC 19606 = CIP 70.34 = JCM 6841) (protein)
chain: MSAVEKLPEDFCANPDVAWTFPKVFYTSSQVFEHEKEAIFAKSWICVAHSSELAQPNDYITRKVIGENIVIIRGKDSVLRAFYNVCPHRGHELLSGSGKAKNVITCPYHAWTFKLDGSLALARNCDHVESFDKENSSMVPLKVEEYAGFLFINMDENATCVEDQLPGFAERLNQACGVIKDLKLAARFVTETPANWKVIVDNYMECYHCGPAHPGFADSVQVDKYWHTTHQNWTLQYGFARSSEKSFKLDPSVTDPEFHGFWTWPCTMFNVPPGSNFMTVIYEFPVDAETTLQHYDIYFTNEELTQDQKDLIEWYRNVFRPEDLNLVESVQRGLKSRGYRGQGRIMTDKQRSGISEHGIAYFQHLVAQYHQ
notes: made in house; host or cells: Escherichia coli BL21(DE3)pLysS
B1: the Vmax in data set [4] is 30.1 (± 3.4) nmol/min/mg; in data set [5], 76.06 (± 1.6) nmol/min/mg; in data set [6], 59.0 (± 3.1) nmol/min/mg; in data set [7], 43.8 (± 1.4) nmol/min/mg.
